As a reminder, the EC50 is the midpoint of the concentration-response curve. By bioavailability is commonly meant the share of a dose that reaches the circulation, judged against a reference dose that is usually intravenous. Lower therefore signals little systemic uptake. What is called AUC is concentration integrated over time. The term Ki denotes the dissociation constant of the complex between target and ligand, obtained from inhibition or displacement. Low readings indicate higher affinity, high ones lower affinity.

These results are taken from ChEMBL document CHEMBL1136629, “Amphipathic 3-phenyl-7-propylbenzisoxazoles; human pPaR gamma, delta and alpha agonists” (Bioorg Med Chem Lett, 2003).

Data set [1] concerns the target T1, Peroxisome proliferator-activated receptor delta (Homo sapiens, UniProt Q03181).
T1 sequence (Q03181 whole entry): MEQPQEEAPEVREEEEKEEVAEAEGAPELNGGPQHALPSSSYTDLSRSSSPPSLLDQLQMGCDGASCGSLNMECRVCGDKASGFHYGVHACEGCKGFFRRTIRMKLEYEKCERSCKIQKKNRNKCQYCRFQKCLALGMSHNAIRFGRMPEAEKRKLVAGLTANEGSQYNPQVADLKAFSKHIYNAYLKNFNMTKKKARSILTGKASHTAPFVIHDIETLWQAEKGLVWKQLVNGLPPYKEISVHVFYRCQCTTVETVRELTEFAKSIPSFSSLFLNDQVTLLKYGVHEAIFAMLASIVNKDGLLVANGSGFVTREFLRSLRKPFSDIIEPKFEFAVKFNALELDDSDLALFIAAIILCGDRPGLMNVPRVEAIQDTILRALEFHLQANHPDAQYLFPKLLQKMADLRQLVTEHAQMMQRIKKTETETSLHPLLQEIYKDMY
Put plainly: Agonistic activity was determined in COS1 cells transfected with GAL 4-PPAR delta receptor. It is filed as functional, cell-based, COS-1.

The target in data set [2] is T2, Peroxisome proliferator-activated receptor gamma (Homo sapiens, UniProt P37231).
T2 sequence (P37231 whole entry): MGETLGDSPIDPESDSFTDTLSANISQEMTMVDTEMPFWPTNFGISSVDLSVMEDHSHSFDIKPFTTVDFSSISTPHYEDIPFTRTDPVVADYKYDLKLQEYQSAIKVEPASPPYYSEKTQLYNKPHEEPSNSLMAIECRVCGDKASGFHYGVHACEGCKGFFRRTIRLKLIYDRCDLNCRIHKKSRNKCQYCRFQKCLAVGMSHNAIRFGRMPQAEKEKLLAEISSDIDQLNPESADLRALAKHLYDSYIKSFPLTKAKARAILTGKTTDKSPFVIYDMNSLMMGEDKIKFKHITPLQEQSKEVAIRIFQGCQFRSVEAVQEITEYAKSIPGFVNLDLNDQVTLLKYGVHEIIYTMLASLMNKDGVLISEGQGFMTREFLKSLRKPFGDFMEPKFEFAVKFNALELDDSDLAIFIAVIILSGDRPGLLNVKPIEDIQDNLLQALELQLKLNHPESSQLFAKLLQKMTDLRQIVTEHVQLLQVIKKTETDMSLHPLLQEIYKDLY
Put plainly: Agonistic activity was determined in COS1 cells transfected with GAL 4-PPAR gamma receptor. It is filed as functional, cell-based, COS-1.

In data set [3] the target is T3, Peroxisome proliferator-activated receptor alpha (Homo sapiens, UniProt Q07869).
T3 sequence (Q07869 whole entry): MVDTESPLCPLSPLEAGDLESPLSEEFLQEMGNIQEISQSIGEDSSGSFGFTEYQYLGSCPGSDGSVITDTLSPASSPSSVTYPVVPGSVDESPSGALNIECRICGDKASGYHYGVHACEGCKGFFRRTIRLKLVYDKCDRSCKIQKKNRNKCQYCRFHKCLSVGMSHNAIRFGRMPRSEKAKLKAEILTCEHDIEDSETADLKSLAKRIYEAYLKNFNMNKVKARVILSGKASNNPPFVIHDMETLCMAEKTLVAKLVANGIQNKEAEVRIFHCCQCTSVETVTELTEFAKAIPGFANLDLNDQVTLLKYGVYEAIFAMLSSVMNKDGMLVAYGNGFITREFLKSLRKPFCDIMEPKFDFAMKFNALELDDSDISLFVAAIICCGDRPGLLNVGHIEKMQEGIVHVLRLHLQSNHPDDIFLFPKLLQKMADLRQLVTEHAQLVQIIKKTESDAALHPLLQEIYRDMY
Description: Agonistic activity was determined in COS1 cells transfected with GAL 4-PPAR alpha receptor. The data set is classed as functional, cell-based, COS-1.

Data set [4] can be described thus: Bioavailability of compound was determined. The conditions noted are these: eutheria, in vivo. The data set is classed as ADME, organism-based.
Data set [5] is described as follows: AUC of compound for a 2 mpk po dose of the sodium salt in rats. The data set is classed as ADME, organism-based. To be noted: rat, plasma, 2 mg/kg.
Data set [6] has as its target T2, Peroxisome proliferator-activated receptor gamma. Description: In vitro binding affinity towards human peroxisome proliferator activated receptor gamma (PPAR gamma).
Data set [7] addresses T1, Peroxisome proliferator-activated receptor delta.
Description: In vitro binding affinity towards human peroxisome proliferator activated receptor delta (PPAR delta)
Data set [8] deals with T3, Peroxisome proliferator-activated receptor alpha. Description: In vitro binding affinity towards human peroxisome proliferator activated receptor alpha (PPAR alpha).

As to `CCCc1c(OCCCCOc2cccc(CC(=O)O)c2)ccc2c(-c3ccccc3)noc12`, the EC50 in data set [1] amounted to 20 nM; in data set [2], 6 nM; in data set [3], 5 nM. The same compound returned a bioavailability in data set [4] of 76%. Also, the AUC in data set [5] was found to be 4.2 µM·h. Also, the Ki was determined as 3.1 nM in data set [6], 0.3 nM in data set [7] and 7.2 nM in data set [8].
